From ChEMBL document CHEMBL1201862, “PubChem BioAssay data set” (2004)
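Cells were grown in 96-well plates and exposed to each compound for 48 hours at five concentrations; endpoints were interpolated linearly between bracketing concentrations, or set to the highest concentration if not reached. Here, GI50 denotes the concentration required for 50% inhibition of growth.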 The source made the active and inactive calls. Rule as the data show it: active = GI50 up to about 1.1 µM and inactive = higher.

Experiments:
Experiment in all cases: NCI tumour cell line growth inhibition, 48 h
[1] = test system: HOP-92
[2] = test system: HT-29
[3] = test system: SK-MEL-28
[4] = test system: UACC-62
[5] = test system: TK-10
[6] = test system: HL-60
[7] = test system: M14
[8] = test system: HCT-116
[9] = test system: SN12C
[10] = test system: Malme-3M
[11] = test system: CAKI-1
[12] = test system: NCI-H460
[13] = test system: ACHN
[14] = test system: SF-539
[15] = test system: KM12
[16] = test system: NCI-H522
[17] = test system: OVCAR-5
[18] = test system: NCI-H226

With `CCN(CC)c1ccc(/N=C2/C=CC(=C(C#N)C#N)c3ccccc32)c(C)c1` the GI50 [1] was 0.324 µM (active), the GI50 [2] was 3.24 µM (inactive) and the GI50 [3] was 1.64 µM (inactive). For the same molecule, the GI50 [4] was 1.38 µM (inactive), the GI50 [5] was 3.25 µM (inactive) and the GI50 [6] was 1.26 µM (inactive). For the same molecule, the GI50 [7] was 1.48 µM (inactive), the GI50 [8] was 1.95 µM (inactive) and the GI50 [9] was 2.53 µM (inactive). For the same molecule, the GI50 [10] was 1.87 µM (inactive), the GI50 [11] was 1.72 µM (inactive) and the GI50 [12] was 2.55 µM (inactive). The GI50 [13] was 2.59 µM (inactive).

`Nc1ccc(C(=O)N/C(=C\c2cccc([N+](=O)[O-])c2)c2nc3cc(Cl)ccc3[nH]2)cc1` was tested, and the GI50 [1] was 24.4 µM (inactive), the GI50 [14] was > 100 µM (inactive) and the GI50 [15] was > 100 µM (inactive). For the same molecule, the GI50 [16] was > 100 µM (inactive), the GI50 [2] was > 100 µM (inactive) and the GI50 [3] was > 100 µM (inactive). The GI50 [4] was > 100 µM (inactive), the GI50 [5] was > 100 µM (inactive) and the GI50 [7] was 74.3 µM (inactive). The GI50 [17] was > 100 µM (inactive), the GI50 [9] was > 100 µM (inactive) and the GI50 [10] was > 100 µM (inactive). The GI50 [11] was 77.6 µM (inactive) and the GI50 [13] was > 100 µM (inactive).

`C=CCN(N=O)C(=O)N(CCCC(NC(C)=O)C(=O)NCc1ccccc1)Cc1ccccc1` (configuration not stated) was tested, and the GI50 [14] was 37.2 µM (inactive), the GI50 [15] was 42.4 µM (inactive) and the GI50 [16] was 21.4 µM (inactive). The GI50 [2] was 24.2 µM (inactive), the GI50 [3] was 79.4 µM (inactive) and the GI50 [4] was 49.8 µM (inactive). The GI50 [5] was 87.1 µM (inactive), the GI50 [6] was 19.6 µM (inactive) and the GI50 [7] was 38.4 µM (inactive). The GI50 [17] was > 100 µM (inactive), the GI50 [9] was 67.6 µM (inactive) and the GI50 [10] was 98.4 µM (inactive). The GI50 [11] was 30.5 µM (inactive), the GI50 [12] was 55.8 µM (inactive) and the GI50 [13] was 54.7 µM (inactive).

With `CSc1nc(-c2ccccc2)nc(N2CCOCC2)[s+]1` the GI50 [14] was > 100 µM (inactive), the GI50 [15] was > 100 µM (inactive) and the GI50 [18] was > 100 µM (inactive). The GI50 [16] was 32.8 µM (inactive), the GI50 [2] was 53.1 µM (inactive) and the GI50 [3] was > 100 µM (inactive). The GI50 [4] was 28.6 µM (inactive), the GI50 [5] was > 100 µM (inactive) and the GI50 [6] was 42.8 µM (inactive). The GI50 [7] was > 100 µM (inactive), the GI50 [17] was > 100 µM (inactive) and the GI50 [8] was > 100 µM (inactive). The GI50 [9] was > 100 µM (inactive), the GI50 [10] was > 100 µM (inactive) and the GI50 [12] was 39 µM (inactive). For the same molecule, the GI50 [13] was > 100 µM (inactive).

With `CC1(C)OC(COCCOCCCCCO)C(COCCOCCCCCO)O1` (configuration not stated) the GI50 [15] was > 100 µM (inactive), the GI50 [18] was > 100 µM (inactive) and the GI50 [16] was > 100 µM (inactive). The GI50 [2] was > 100 µM (inactive), the GI50 [3] was > 100 µM (inactive) and the GI50 [4] was 82.6 µM (inactive). The GI50 [5] was > 100 µM (inactive), the GI50 [6] was > 10 µM (inactive) and the GI50 [7] was > 100 µM (inactive). For the same molecule, the GI50 [17] was > 100 µM (inactive), the GI50 [8] was > 100 µM (inactive) and the GI50 [9] was > 100 µM (inactive). For the same molecule, the GI50 [10] was > 100 µM (inactive), the GI50 [11] was > 100 µM (inactive) and the GI50 [12] was > 100 µM (inactive). The GI50 [13] was > 100 µM (inactive).

For `Cc1ccccc1NC(=O)Cc1nc2ccccc2s1`, the GI50 [14] was 18.9 µM (inactive), the GI50 [15] was 16.7 µM (inactive) and the GI50 [18] was 18.9 µM (inactive). The GI50 [16] was 15.3 µM (inactive), the GI50 [2] was 19.6 µM (inactive) and the GI50 [3] was 17.7 µM (inactive). The GI50 [4] was 19.4 µM (inactive), the GI50 [5] was 23.8 µM (inactive) and the GI50 [6] was 9.44 µM (inactive). The GI50 [7] was 12.6 µM (inactive), the GI50 [17] was 21.9 µM (inactive) and the GI50 [8] was 16.5 µM (inactive). For the same molecule, the GI50 [9] was 16.6 µM (inactive), the GI50 [10] was 15.8 µM (inactive) and the GI50 [11] was 17.7 µM (inactive). The GI50 [12] was 19.4 µM (inactive) and the GI50 [13] was 15.4 µM (inactive).

`CCOc1ccc(/N=C/c2cccc3cccnc23)cc1` was tested, and the GI50 [1] was > 100 µM (inactive), the GI50 [14] was > 100 µM (inactive) and the GI50 [15] was 39.8 µM (inactive). The GI50 [18] was > 100 µM (inactive), the GI50 [2] was > 100 µM (inactive) and the GI50 [3] was > 100 µM (inactive). The GI50 [4] was > 100 µM (inactive), the GI50 [5] was > 100 µM (inactive) and the GI50 [6] was 25.6 µM (inactive). For the same molecule, the GI50 [7] was 44.7 µM (inactive), the GI50 [17] was > 100 µM (inactive) and the GI50 [8] was 43.8 µM (inactive). For the same molecule, the GI50 [9] was > 100 µM (inactive), the GI50 [10] was > 100 µM (inactive) and the GI50 [11] was > 100 µM (inactive). The GI50 [12] was > 100 µM (inactive) and the GI50 [13] was > 100 µM (inactive).

`Cc1cc2c(c(C(=O)O)c1C)-c1cccc(Cl)c1C2=O` was tested, and the GI50 [15] was > 100 µM (inactive), the GI50 [18] was > 100 µM (inactive) and the GI50 [16] was > 100 µM (inactive). The GI50 [2] was > 100 µM (inactive), the GI50 [3] was > 100 µM (inactive) and the GI50 [4] was > 100 µM (inactive). For the same molecule, the GI50 [5] was > 100 µM (inactive), the GI50 [7] was > 100 µM (inactive) and the GI50 [17] was > 100 µM (inactive). For the same molecule, the GI50 [9] was > 100 µM (inactive), the GI50 [10] was > 100 µM (inactive) and the GI50 [11] was > 100 µM (inactive). For the same molecule, the GI50 [12] was > 100 µM (inactive) and the GI50 [13] was > 100 µM (inactive).

With `COc1ccc2c(c1)[n+]([O-])c(-c1ccc(Br)cc1)c(N)[n+]2[O-]` the GI50 [1] was > 100 µM (inactive), the GI50 [14] was 36.1 µM (inactive) and the GI50 [15] was 58.5 µM (inactive). The GI50 [18] was 66.5 µM (inactive), the GI50 [16] was 15.6 µM (inactive) and the GI50 [2] was 44.4 µM (inactive). For the same molecule, the GI50 [3] was 23.2 µM (inactive), the GI50 [6] was 21.1 µM (inactive) and the GI50 [17] was 60 µM (inactive). The GI50 [8] was 30.6 µM (inactive), the GI50 [9] was 47 µM (inactive) and the GI50 [10] was 25.2 µM (inactive). For the same molecule, the GI50 [11] was 51.5 µM (inactive), the GI50 [12] was 36.3 µM (inactive) and the GI50 [13] was 47.8 µM (inactive).
